Assay: method code SF, from DOI: 10.1021/jf00073a025

Molecule `CNC(=O)ON=C1SCOC1C` (stereo in doubt) has a logP of 0.46.
Molecule `CNC(=O)ON=C1CSCCS1` has a logP of 0.49.
Work on `CCCC1OCS/C1=N\OC(=O)NC` (centres undefined) yielded a logP of 1.52.
For `CNC(=O)ON=C1CSC(C)(C)S1`, the logP was 1.33.
Molecule `CNC(=O)O/N=C1/SC(C)OC1C` (centres undefined) has a logP of 0.96.
`CNC(=O)O/N=C1/CSCS1` showed a logP of 0.51.
For `CNC(=O)O/N=C1\SCOC1C(C)C` (centres undefined), the logP was 1.48.
`CNC(=O)O/N=C1\SCOC1CCOC` (centres undefined) showed a logP of 0.51.
`CNC(=O)O/N=C1/SCOC1(C)C` showed a logP of 0.82.
With `CNC(=O)O/N=C1\SCCSC1(C)C` the logP was 1.51.
`CNC(=O)ON=C1SCSC1(C)C` gave a logP of 1.31.
Work on `CNC(=O)O/N=C1\SCSC1C` (centres undefined) yielded a logP of 0.91.
In the case of `CNC(=O)ON=C1COCCS1` (stereo in doubt), the logP is reported as -0.
Molecule `CNC(=O)O/N=C1/COCS1` has a logP of 0.06.
